Laboratory results as given in article PMC5110648, “Coupled binding mechanism of three sodium ions and aspartate in the glutamate transporter homologue GltTk” (Nature Communications, 2016).

Target: T1, GltTk (Thermococcus kodakarensis, UniProt Q5JID0)
T1 construct: gene TK0986; C-terminally His8-tagged, pBAD24-derived plasmid, E. coli MC1061; purified in decyl maltoside; trimer
Test: isothermal titration calorimetry; crystal structure […] Å
Assay type: binding
Conditions: eight Na+ concentrations (apparent affinity strongly Na+-dependent); 10 mM Hepes KOH pH 8, 100 mM KCl, 0.15% DM, 25 °C; transport substrate site

T1 sequence (Q5JID0 entry or part of it): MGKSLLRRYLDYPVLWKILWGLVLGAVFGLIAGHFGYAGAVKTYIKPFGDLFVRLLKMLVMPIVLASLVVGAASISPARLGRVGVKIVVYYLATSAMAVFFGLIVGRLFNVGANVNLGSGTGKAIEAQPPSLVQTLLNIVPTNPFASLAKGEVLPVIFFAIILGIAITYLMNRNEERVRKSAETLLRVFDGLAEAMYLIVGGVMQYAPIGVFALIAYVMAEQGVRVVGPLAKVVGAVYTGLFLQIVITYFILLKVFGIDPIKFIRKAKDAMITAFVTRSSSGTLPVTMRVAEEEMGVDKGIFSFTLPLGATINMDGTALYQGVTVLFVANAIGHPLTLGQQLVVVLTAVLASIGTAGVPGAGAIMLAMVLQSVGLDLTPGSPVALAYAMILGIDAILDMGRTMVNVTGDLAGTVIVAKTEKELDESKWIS

Structure (SMILES): N[C@@H](CC(=O)O)C(=O)O [L-aspartate]
- Apparent affinity: Apparent affinity of GltTk for aspartate as a function of Na^+ concentration
